Measured values as given in patent publication EP1143992B1, “THERAPEUTIC COMPOSITIONS CONTAINING GLUTATHIONE ANALOGS” (TELIK, INC., priority 1999, dated 2000).
Read-outs that look alike come from different tables or passages of the source.

Key:
[1] = Particle size of lipid microspheres; type: physicochemical; conditions: lipid microspheres after 1.2µm filter, 300 µg/mL
Procedure: Then 2.21 gm of glycerol and enough distilled water to bring the volume to 100 mL(approximately 90 mL) were added, followed by a rough emulsification by means of a homogenizer. The product is then further emulsified by means of a manton gaulin type homogenizer. […]

[2] = Procedure: The lyophilization cycle involved rapid freezing of the sample (2.5 ml fill of 10 ml vial) to a sample temperature of -50°C, followed by lyophilization at a tray temperature of -35°C for 42 hours to remove primary water, and for 2 hours at 20°C to remove secondary water.
The MLVs may be passed (5-10x) through stacked polycarbonate filters (pore size of 80 nm) using an EXTRUDER (Lipex Biomembranes, Vancouver, Canada).

[3] = tested on: fluorouracil-induced neutropenia; conditions: rats; fluorouracil 125mg/kg intraperitoneally; liposomal formulation of Example 4, 35mg/kg, 8 daily intravenous injections; Figure 1
Procedure: Male CD rats (250-300g) were injected intraperitoneally with either the antineoplastic drug, fluorouracil (125mg/kg) or an equivalent volume of its vehicle (saline). […] Rats originally injected with saline rather than fluorouracil received saline intravenously (n = 7). Blood samples were taken for measurement of neutrophil levels prior to the fluorouracil and every 1 to 2 days thereafter for 14 days.

[4] = tested on: circulating neutrophil levels; conditions: normal rats; liposomal formulation of Example 4, 35mg/kg, i.v., 5 daily injections; Figure 2
Text: Blood samples were taken for measurement of neutrophil levels daily.

[5] = Drug/Lipid 0.25, EPC/EPG (1/1), Sucrose 300 mM

## CCOC(=O)C(N)CCC(=O)NC(CSCc1ccccc1)C(=O)N[C@@H](C(=O)OCC)c1ccccc1.Cl (stereo partly shown) [Compound 9, γ-Glutamyl-S(benzyl)cysteinyl-R-phenyl glycine diethyl ester hydrochloride]
[1]
  particles of final emulsion: approximately 220 nM
[2]; ethanol dilution, Drug/Lipid 0.25 wt/wt, EPC, comparative example
  Drug (mg/ml): 16.2. mg/ml
[2]; removed by extrusion through 80 nm filters
  precipitated form of the drug: < 2%
[3]
  recovery from chemotherapy-induced neutropenia: accelerated recovery
[4]
  circulating neutrophil levels: increased
[5]; Lyophilization Time 32 hr
  Viscosity: Negligible
[5]; Lyophilization Time 40 hr
  Viscosity: Negligible
[5]; Lyophilization Time 44 hr
  Viscosity: Negligible
[5]; Lyophilization Time 54 hr
  Viscosity: Viscous
[5]; Lyophilization Time 59 hr
  Viscosity: Very Viscous
